The source of these data is patent US20140242200A1, “WATER-SOLUBLE EXTRACTS OF ARTEMISIA DRACUNCULUS (TARRAGON) FOR IMPROVEMENT OF GLUCOSE METABOLISM” (Finzelberg GmbH & Co. KG, priority 2008, published 2014).

Structures are written as SMILES.

Assay [1] relates to Male non-fasted Wistar rats. The assay is described as follows: Basal blood glucose levels in rats (no glucose challenge). Type of assay: in vivo. Particulars: oral treatment, extracts 6 mg/kg, blood samples 0-180 min, one-way ANOVA, Student-Newman-Keuls. How it is done: (§1) A common way of testing for an effect of extracts or new chemical entities on blood glucose levels is the glucose challenge test (Verspohl, E. J.: Recommended testing in diabetes research. Planta Med 68 (7): 581-90, 2002) in which rats are given the extract, control, or a known antidiabetic substance with (challenge) and without (basal) an intraperitoneal (i.p.) dose of glucose. The extracts are given orally 30 min. before the glucose challenge. Blood samples are taken sublingual at time points 0, 15, 30, 60, and 120 minutes for the glucose challenge or 0, 30, 60, 120, and 180 minutes for basal blood glucose levels. This sampling scheme ensures to monitor both effects of extracts on basal blood glucose levels over a longer time period and the blood glucose levels after glucose challenge closely enough. […]
(§2) Blood was drawn at the appropriate time points from the sublingual vein after a short halothane anesthesia and stored at 4° C. with addition of heparin. […] The supernatant plasma was taken and analyzed using an autoanalyzer (Merck, Darmstadt). […]
(§3) Both percent and AUC data were analyzed by one-way ANOVA and Student-Newman-Keuls Multiple Comparison Test using Graphpad 4.0 Software, San Diego, USA. The AUC (area under the curve) was calculated using the trapezoidal rule without extensions beyond the last time point measured.

The test system of assay [2] is Male non-fasted Wistar rats. Put plainly: Glucose challenge test (i.p. glucose) in rats. Type of assay: in vivo. Particulars: oral treatment 30 min before i.p. glucose; extracts 6 mg/kg; blood samples 0-120 min; one-way ANOVA, Student-Newman-Keuls. How it is done: as §1, §2, §3

On to `N[C@@H](CC(=O)N1CCn2c(nnc2C(F)(F)F)C1)Cc1cc(F)c(F)cc1F` [sitagliptin], for which, in assay [1], the “effect on basal blood glucose levels” value is recorded as “significant effect”. In addition, in assay [2], the “effect on lowering the blood glucose levels following the i.p. glucose challenge” value is given as “significant effect”.

With `COc1ccc(Cl)cc1C(=O)NCCc1ccc(S(=O)(=O)NC(=O)NC2CCCCC2)cc1` [glyburide], in assay [1], the “effect on basal blood glucose levels” value is given as “significant effect”. For the same molecule, in assay [2], the “effect on lowering the blood glucose levels following the i.p. glucose challenge” value was “significant effect”.
